Measured values: paper PMC3502418 (2012)

Experiments:
[1] = test system: DNA2-A (DNA, mismatch bulge abasic, abasic site (dSpacer, tetrahydrofuran residue) at X, opposite A, flanked by A; position in Figure 1B) ATGGTGANAGCAGCG/CGCTGCTATCACCAT; test: UV melting at 260 nm; conditions: 0.1 M phosphate, 1 mM EDTA, pH 8.3 or 7.0 (unclear); 5 µM SG, 5 µM DNA
[2] = test system: DNA2-C (DNA, mismatch bulge abasic, abasic site (dSpacer, tetrahydrofuran residue) at X, opposite C, flanked by A; position in Figure 1B) ATGGTGANAGCAGCG/CGCTGCTCTCACCAT; test: UV melting at 260 nm; conditions: 0.1 M phosphate, 1 mM EDTA, pH 8.3 or 7.0 (unclear); 5 µM SG, 5 µM DNA
[3] = test system: mismatched DNA (DNA1, X = T, Y = C) (DNA, mismatch bulge abasic) ATGGTGTTTGCAGCG/CGCTGCACACACCAT; test: fluorescence enhancement at 586 nm; conditions: 0.1 M phosphate, pH 8.3 presumed; 5 µM SG; up to 5 µM DNA; weaker than DNA1-C
[4] = test system: DNA1-A (DNA, mismatch bulge abasic, abasic site (dSpacer, tetrahydrofuran residue) at X, opposite A, flanked by T; position in Figure 1B) ATGGTGTNTGCAGCG/CGCTGCAAACACCAT; test: UV melting at 260 nm; conditions: 0.1 M phosphate, 1 mM EDTA, pH 8.3 or 7.0 (unclear); 5 µM SG, 5 µM DNA
[5] = test system: DNA1-C (DNA, mismatch bulge abasic, abasic site (dSpacer, tetrahydrofuran residue) at X, opposite C, flanked by T; position in Figure 1B) ATGGTGTNTGCAGCG/CGCTGCACACACCAT; test: fluorescence titration (586 nm), Scatchard; conditions: 0.1 M phosphate, 1 mM EDTA; pH 8.3 presumed; 1 µM SG; strongest site only
[6] = test system: DNA4-C (DNA, mismatch bulge abasic, abasic site (dSpacer, tetrahydrofuran residue) at X, opposite C, flanked by C; position in Figure 1B) ATGGTGCNCGCAGCG/CGCTGCGCGCACCAT; test: UV melting at 260 nm; conditions: 0.1 M phosphate, 1 mM EDTA, pH 8.3 or 7.0 (unclear); 5 µM SG, 5 µM DNA
[7] = test system: DNA3-T (DNA, mismatch bulge abasic, abasic site (dSpacer, tetrahydrofuran residue) at X, opposite T, flanked by G; position in Figure 1B) ATGGTGGNGGCAGCG/CGCTGCCTCCACCAT; test: UV melting at 260 nm; conditions: 0.1 M phosphate, 1 mM EDTA, pH 8.3 or 7.0 (unclear); 5 µM SG, 5 µM DNA
[8] = test system: DNA1-T (DNA, mismatch bulge abasic, abasic site (dSpacer, tetrahydrofuran residue) at X, opposite T, flanked by T; position in Figure 1B) ATGGTGTNTGCAGCG/CGCTGCATACACCAT; test: UV melting at 260 nm; conditions: 0.1 M phosphate, 1 mM EDTA, pH 8.3 or 7.0 (unclear); 5 µM SG, 5 µM DNA
[9] = test system: DNA4-G (DNA, mismatch bulge abasic, abasic site (dSpacer, tetrahydrofuran residue) at X, opposite G, flanked by C; position in Figure 1B) ATGGTGCNCGCAGCG/CGCTGCGGGCACCAT; test: UV melting at 260 nm; conditions: 0.1 M phosphate, 1 mM EDTA, pH 8.3 or 7.0 (unclear); 5 µM SG, 5 µM DNA
[10] = test system: DNA3-G (DNA, mismatch bulge abasic, abasic site (dSpacer, tetrahydrofuran residue) at X, opposite G, flanked by G; position in Figure 1B) ATGGTGGNGGCAGCG/CGCTGCCGCCACCAT; test: UV melting at 260 nm; conditions: 0.1 M phosphate, 1 mM EDTA, pH 8.3 or 7.0 (unclear); 5 µM SG, 5 µM DNA
[11] = test system: DNA1-G (DNA, mismatch bulge abasic, abasic site (dSpacer, tetrahydrofuran residue) at X, opposite G, flanked by T; position in Figure 1B) ATGGTGTNTGCAGCG/CGCTGCAGACACCAT; test: UV melting at 260 nm; conditions: 0.1 M phosphate, 1 mM EDTA, pH 8.3 or 7.0 (unclear); 5 µM SG, 5 µM DNA

ΔT [1]: 3.0 °C | ΔT [2]: 5.4 °C | binding [3]: yes | ΔT [4]: 1.9 °C | binding constant [5]: 1.7±0.15×10^7 M^−1 | ΔT [6]: 5.2 °C | ΔT [7]: 5.7 °C | ΔT [8]: 3.8 °C | ΔT [9]: 2.4 °C | ΔT [10]: 2.4 °C | ΔT [11]: 1.9 °C
Compound: C[n+]1cc2c3c(ccc2c2ccc4cc5c(cc4c21)OCO5)OCO3
